For one experiment, the target named is Recombinant PRC2 (EZH2-Y641F) (Homo sapiens, UniProt Q15910, Y641F). The experiment is described as follows: In vitro methyltransferase activity test (LANCE Ultra).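 Also: compounds tested as an 8-point threefold dilution series, fluorescence read after 1 h detection step at room temperature, IC50 derived from a four-parameter curve fit.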 The following applies: EZH2 Y641F IC50, Recombinant PRC2 (EZH2-Y641F), LANCE Ultra detection, 3 hours reaction. In general terms: Time-resolved FRET reads energy transfer from a long-lived donor to a nearby acceptor.
Chain of Recombinant PRC2 (EZH2-Y641F) (Q15910 whole entry Y641F): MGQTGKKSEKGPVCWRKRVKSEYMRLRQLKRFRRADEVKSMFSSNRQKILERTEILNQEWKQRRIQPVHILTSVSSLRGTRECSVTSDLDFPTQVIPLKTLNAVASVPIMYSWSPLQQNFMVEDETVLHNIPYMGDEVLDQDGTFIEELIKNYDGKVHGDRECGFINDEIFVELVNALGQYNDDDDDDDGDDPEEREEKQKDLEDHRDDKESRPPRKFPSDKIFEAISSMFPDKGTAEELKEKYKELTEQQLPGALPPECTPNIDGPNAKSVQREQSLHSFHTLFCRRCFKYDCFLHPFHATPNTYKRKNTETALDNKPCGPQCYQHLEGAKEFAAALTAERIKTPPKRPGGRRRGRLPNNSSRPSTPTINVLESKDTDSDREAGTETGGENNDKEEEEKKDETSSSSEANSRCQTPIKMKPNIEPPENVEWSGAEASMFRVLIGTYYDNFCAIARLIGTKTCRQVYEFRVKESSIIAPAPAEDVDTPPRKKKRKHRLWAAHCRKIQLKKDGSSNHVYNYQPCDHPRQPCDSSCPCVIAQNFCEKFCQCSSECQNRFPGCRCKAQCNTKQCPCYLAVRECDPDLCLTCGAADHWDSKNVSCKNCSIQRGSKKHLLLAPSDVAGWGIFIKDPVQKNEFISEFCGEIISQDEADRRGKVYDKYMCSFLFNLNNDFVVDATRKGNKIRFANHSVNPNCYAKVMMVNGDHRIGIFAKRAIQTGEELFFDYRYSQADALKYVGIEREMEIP
Chain of Recombinant PRC2 (EZH2-Y641F) (O75530 whole entry partner): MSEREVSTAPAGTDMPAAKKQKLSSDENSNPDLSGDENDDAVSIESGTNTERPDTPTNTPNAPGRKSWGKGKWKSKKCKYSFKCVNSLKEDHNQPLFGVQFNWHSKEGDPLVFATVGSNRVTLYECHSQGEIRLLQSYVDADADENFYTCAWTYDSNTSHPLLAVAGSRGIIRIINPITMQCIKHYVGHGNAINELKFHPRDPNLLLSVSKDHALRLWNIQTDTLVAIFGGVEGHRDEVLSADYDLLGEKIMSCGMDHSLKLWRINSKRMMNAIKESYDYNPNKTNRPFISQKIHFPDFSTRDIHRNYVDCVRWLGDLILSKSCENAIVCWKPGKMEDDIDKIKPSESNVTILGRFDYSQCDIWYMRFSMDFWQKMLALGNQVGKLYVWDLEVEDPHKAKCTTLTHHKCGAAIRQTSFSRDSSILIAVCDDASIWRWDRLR
Chain of Recombinant PRC2 (EZH2-Y641F) (Q15022 whole entry partner): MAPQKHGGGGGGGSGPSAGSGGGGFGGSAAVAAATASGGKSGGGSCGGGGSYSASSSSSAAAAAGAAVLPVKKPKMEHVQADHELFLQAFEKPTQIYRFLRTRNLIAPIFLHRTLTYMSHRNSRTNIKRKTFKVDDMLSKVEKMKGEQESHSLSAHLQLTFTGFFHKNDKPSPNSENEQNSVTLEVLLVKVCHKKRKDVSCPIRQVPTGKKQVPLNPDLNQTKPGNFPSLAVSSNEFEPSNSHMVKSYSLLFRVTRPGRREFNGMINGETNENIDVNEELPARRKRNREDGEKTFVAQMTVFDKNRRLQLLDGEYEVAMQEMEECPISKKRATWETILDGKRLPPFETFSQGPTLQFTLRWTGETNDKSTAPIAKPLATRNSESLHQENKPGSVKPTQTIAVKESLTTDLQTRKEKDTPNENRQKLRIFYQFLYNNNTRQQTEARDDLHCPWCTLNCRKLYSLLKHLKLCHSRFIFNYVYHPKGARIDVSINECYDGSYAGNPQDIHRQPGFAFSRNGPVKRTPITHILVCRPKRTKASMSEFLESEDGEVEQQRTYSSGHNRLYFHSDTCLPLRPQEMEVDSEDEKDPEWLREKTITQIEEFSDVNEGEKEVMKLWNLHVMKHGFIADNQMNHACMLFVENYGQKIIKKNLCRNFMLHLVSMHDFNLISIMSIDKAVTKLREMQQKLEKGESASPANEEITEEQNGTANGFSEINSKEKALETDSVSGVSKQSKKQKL
Chain of Recombinant PRC2 (EZH2-Y641F) (Q09028 whole entry partner): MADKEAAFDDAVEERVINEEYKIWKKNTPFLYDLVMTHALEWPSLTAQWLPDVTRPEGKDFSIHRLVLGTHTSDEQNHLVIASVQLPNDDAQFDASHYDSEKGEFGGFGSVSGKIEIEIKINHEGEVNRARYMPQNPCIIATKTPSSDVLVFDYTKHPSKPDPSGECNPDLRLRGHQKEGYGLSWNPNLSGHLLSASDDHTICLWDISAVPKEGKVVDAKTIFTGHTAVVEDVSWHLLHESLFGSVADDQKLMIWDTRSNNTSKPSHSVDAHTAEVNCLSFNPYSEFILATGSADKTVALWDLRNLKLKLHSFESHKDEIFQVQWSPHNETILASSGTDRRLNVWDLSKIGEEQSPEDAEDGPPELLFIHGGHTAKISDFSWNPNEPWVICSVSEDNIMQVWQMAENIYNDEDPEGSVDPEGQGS
Chain of Recombinant PRC2 (EZH2-Y641F) (Q6ZN18 whole entry partner): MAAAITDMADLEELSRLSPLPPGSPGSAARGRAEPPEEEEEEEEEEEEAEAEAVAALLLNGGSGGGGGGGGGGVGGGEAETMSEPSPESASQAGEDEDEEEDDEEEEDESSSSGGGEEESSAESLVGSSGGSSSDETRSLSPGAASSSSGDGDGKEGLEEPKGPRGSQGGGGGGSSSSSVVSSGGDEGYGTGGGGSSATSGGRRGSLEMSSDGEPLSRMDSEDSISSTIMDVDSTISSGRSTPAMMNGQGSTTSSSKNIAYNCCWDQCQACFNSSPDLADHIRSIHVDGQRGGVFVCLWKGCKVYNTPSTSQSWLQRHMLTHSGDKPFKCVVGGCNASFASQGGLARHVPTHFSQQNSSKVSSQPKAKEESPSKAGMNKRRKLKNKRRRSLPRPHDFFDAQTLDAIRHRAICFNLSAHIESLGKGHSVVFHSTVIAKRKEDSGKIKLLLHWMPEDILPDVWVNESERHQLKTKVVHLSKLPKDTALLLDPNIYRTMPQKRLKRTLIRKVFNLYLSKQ
Description: In Vitro Methyltransferase Activity Test
Recombinant PRC2 (EZH2-Y641F) was purchased from Active motif, S-adenosyl-methionine (SAM) and Poly-L-lysine (PLL) were purchased from Sigma-Aldrich, H3(1-50)K27mel polypeptide was purchased from Cisbio. LANCEUltra system (Perkinelmer) was used for detection. In the enzyme activity test, a compound to be tested was 1:3 diluted for 8 gradient points, added into a reaction plate, and then added 100 ng recombinant enzyme. And then a buffer [20 mM Tris pH8.5, 2 mM MgCl2, 0.01% Tween-20, 1 mM TCEP] containing 2.5 M SAM/250 nM H3(1-50)K27mel premixture was added to conduct an enzyme reaction at room tempreture. After reacted for 3 hours, a dection solution containing premixed PLL, detection antibody and Ulight was added, reacted for 1 h at RT, then fluorescence was read on Tecan infinite pro. IC50s were calculated by four-factor model fitting in a XLfit software.
Turning to `CCN(c1cc(-c2ccc(CN3CCOCC3)cc2)cc2c(NCc3c(C)cc(C)[nH]c3=O)nccc12)C1CCOCC1` [Compound Z-1], the IC50 (in general, the concentration that gives 50% inhibition) is 422 nM. On to `CCN(c1cc(Br)cc2c(NCc3c(C)cc(C)[nH]c3=O)nccc12)C1CCOCC1` [Compound Z-3, 3-((7-bromo-5-(ethyl (tetrahydro-2H-pyran-4-yl)amino)isoquinolin-1-ylamino)methyl)-4,6-dimethyl-2(1H)-one], for which the IC50 amounted to 186 nM. As for `CCN(c1cc(Cl)cc2c(NCc3c(C)cc(C)[nH]c3=O)nccc12)C1CCOCC1` [Compound Z-4, 3-((7-chloro-5-(ethyl (tetrahydro-2H-pyran-4-yl)amino)isoquinolin-1-ylamino)methyl)-4,6-dimethyl-2(1H)-one], the concentration for half-maximal inhibition (IC50) came to 295 nM.

In the case of `CCN(c1cc(C#N)cc2c(NCc3c(C)cc(C)[nH]c3=O)nccc12)C1CCOCC1` [Compound Z-6, 1-((4,6-dimethyl-2-oxo-1,2-dihydropyridin-3-yl)methylamino)-5-(ethyl (tetrahydro-2H-pyran-4-yl)amino)isoquinoline-7-carbonitrile], the IC50 was 611 nM. On the same count and under the same terms, with `CCN(c1cc(-c2cnn(C)c2)cc2c(NCc3c(C)cc(C)[nH]c3=O)nccc12)C1CCOCC1` [Compound Z-7, 3-((5-(ethyl (tetrahydro-2H-pyran-4-yl)amino)-7-(1-methyl-1H-pyrazol-4-yl)isoquinoline-1-ylamino)methyl)-4,6-dimethylpyridin-2(1H)-one] the figure was 481 nM; with `CCN(c1cc(-c2ccc(CN3CCNCC3)cc2)cc2c(NCc3c(C)cc(C)[nH]c3=O)nccc12)C1CCOCC1` [Compound Z-8, 3-((5-(ethyl (tetrahydro-2H-pyran-4-yl)amino)-7-(4-(piperazin-1-ylmethyl)phenyl)isoquinoline-1-ylamino)methyl)-4,6-dimethyl-2(1H)-one], 86 nM; with `CCN(c1cc(Cl)cc2c(NCc3c(C)cc(C)nc3O)nccc12)C1CC2CNCC2C1` (stereo not shown) [Compound Z-9, 3-((7-chloro-5-(ethyl (octahydrocyclopenta[c]pyrrol-5-yl)amino)isoquinolin-1-ylamino)methyl)-4,6-dimethylpyridine-2-ol], 57 nM.

As to `CCN(c1cc(C(F)(F)F)cc2c(NCc3c(C)cc(C)[nH]c3=O)nccc12)C1CCNCC1` [Compound Z-13, 3-((5-(ethyl (piperidin-4-yl)amino)-7-(trifluoromethyl)isoquinolin-1-ylamino)methyl)-4,6-dimethylpyridine-2(1H)-one], the half-maximal inhibitory concentration (IC50) stood at 92 nM. On to `CCN(c1cc(-c2cn[nH]c2)cc2c(NCc3c(C)cc(C)[nH]c3=O)nccc12)C1CCOCC1` [Compound Z-14], for which the IC50 came out at 426 nM. For `CCN(c1cc(Br)cc2c(NCc3c(C)cc(C)[nH]c3=O)nccc12)C1CCC(N(C)C)CC1` (stereo not shown) [Compound Z-15, 3-((7-bromo-5-((4-(dimethylamino)cyclohexyl) (ethyl)amino)isoquinolin-1-ylamino)methyl)-4,6-dimethyl-2(1H)-one], the IC50 is 91 nM. Turning to `CCN(c1cc(C(F)(F)F)cc2c(NCc3c(C)cc(C)[nH]c3=O)nccc12)C1CCOCC1` [Compound Z-16, 3-((5-(ethyl (tetrahydro-2H-pyran-4-yl)amino)-7-(trifluoromethyl)isoquinolin-1-ylamino)methyl)-4,6-dimethyl-2(1H)-one], the IC50 is 428 nM. Regarding `CCN(c1cc(C(N)=O)cc2c(NCc3c(C)cc(C)[nH]c3=O)nccc12)C1CCOCC1` [Compound Z-18], the IC50 is 284 nM. On the same count and under the same terms, with `CCN(c1cc(-c2ccc(CN3CCCCC3)cc2)cc2c(NCc3c(C)cc(C)[nH]c3=O)nccc12)C1CCOCC1` [Compound Z-23] the figure was 212 nM. On to `CCN(c1cc(-c2ccc(N3CCN(C)CC3)nc2)cc2c(NCc3c(C)cc(C)[nH]c3=O)nccc12)C1CCOCC1` [Compound Z-24], for which the half-maximal inhibitory concentration (IC50) was 152 nM.

In the case of `CCN(CC)Cc1ccc(-c2cc(N(CC)C3CCOCC3)c3ccnc(NCc4c(C)cc(C)[nH]c4=O)c3c2)cc1` [Compound Z-27], the half-inhibitory concentration (IC50) turned out to be 96 nM. On the same count and under the same terms, in the case of `CCN(c1cc(-c2ccc(N3CCOCC3)nc2)cc2c(NCc3c(C)cc(C)[nH]c3=O)nccc12)C1CCOCC1` [Compound Z-28] it was 341 nM; in that of `CCN(c1cc(-c2ccc(CN3CCN(C)CC3)cc2)cc2c(NCc3c(C)cc(C)[nH]c3=O)nccc12)C1CCOCC1` [Compound Z-29], 157 nM.

Take `CCN(c1cc(-c2ccc(CN(C)C)cc2)cc2c(NCc3c(C)cc(C)[nH]c3=O)nccc12)C1CCOCC1` [Compound Z-30]: the IC50 came out at 298 nM. In the case of `CCN(c1cc(-c2ccc(CN3CCC[C@H](O)C3)cc2)cc2c(NCc3c(C)cc(C)[nH]c3=O)nccc12)C1CCOCC1` [Compound Z-31], the IC50 came to 328 nM. As to `CCN(c1cc(-c2ccc(NC3CCOCC3)cc2)cc2c(NCc3c(C)cc(C)[nH]c3=O)nccc12)C1CCOCC1` [Compound Z-32], the half-maximal inhibitory concentration (IC50) is 488 nM. `CCN(c1cc(-c2ccc(CN3CCOCC3)cc2)cc2c(NCc3c(C)cc(C)[nH]c3=O)nccc12)C1CCC(NC(C)=O)CC1` (stereo not shown) [Compound Z-33]: the IC50 worked out at 145 nM. For `CCN(c1cc(-c2cnn(C)c2)cc2c(NCc3c(C)cc(C)[nH]c3=O)nccc12)[C@H]1CC[C@H](N(C)C)CC1` [Compound Z-38], the 50% inhibitory concentration (IC50) was 138 nM.

`CCN(c1cc(-c2ccc(CN3CCOCC3)cc2)cc2c(NCc3c(C)cc(C)[nH]c3=O)nccc12)C1CCC(N(C)C)CC1` (stereo not shown) [Compound Z-41]: the IC50 is 38 nM. On the same count and under the same terms, in the case of `CCN(c1cc(-c2ccc(N3CCOCC3)nc2)cc2c(NCc3c(C)cc(C)[nH]c3=O)nccc12)C1CCC(NC(C)=O)CC1` (stereo not shown) [Compound Z-48] it was 303 nM; in that of `CCN(c1cc(-c2ccc(N3CCN(C)CC3)nc2)cc2c(NCc3c(C)cc(C)[nH]c3=O)nccc12)C1CCN(C)CC1` [Compound Z-50], 26 nM. Take `CCN(c1cc(-c2ccc(N3CCN(C)CC3)nc2)cc2c(NCc3c(C)cc(C)[nH]c3=O)nccc12)C1CCNCC1` [Compound Z-56]: the IC50 is 7 nM. As for `CCN(c1cc(-c2ccc(N3CCN(C)CC3)nc2)cc2c(NCc3c(C)cc(C)[nH]c3=O)nccc12)C1CCN(C(C)=O)CC1` [Compound Z-57], the IC50 amounted to 86 nM. On to `CCN(c1cc(-c2ccc(N3CCOCC3)nc2)cc2c(NCc3c(C)cc(C)[nH]c3=O)nccc12)C1CCN(C(C)=O)CC1` [Compound Z-59], for which the half-maximal inhibitory concentration (IC50) was 277 nM.

Turning to `CCN(c1cc(-c2ccc(CN3CCOCC3)cc2)cc2c(NCc3c(C)cc(C)[nH]c3=O)nccc12)C1CCN(C(C)=O)CC1` [Compound Z-60], the IC50 amounted to 321 nM. As for `CCN(c1cc(C2=CCN(C)CC2)cc2c(NCc3c(C)cc(C)[nH]c3=O)nccc12)C1CCC(N(C)C)CC1` (stereo not shown) [Compound Z-61], the half-inhibitory concentration (IC50) came to 12 nM. `CCN(c1cc(-c2cnc(N3CCOCC3)nc2)cc2c(NCc3c(C)cc(C)[nH]c3=O)nccc12)C1CCN(C(C)C)CC1` [Compound Z-62]: the IC50 worked out at 80 nM. In the case of `CCN(c1cc(-c2cnc(N3CCN(C)CC3)nc2)cc2c(NCc3c(C)cc(C)[nH]c3=O)nccc12)C1CCN(C(C)C)CC1` [Compound Z-67], the IC50 turned out to be 70 nM. The same measure, in the same setting: in the case of `CCN(c1cc(-c2cccnc2)cc2c(NCc3c(C)cc(C)[nH]c3=O)nccc12)C1CCN(C(C)C)CC1` [Compound Z-68] it was 150 nM. In the case of `CCN(c1cc(-c2ccc(CN3CCOCC3)nc2)cc2c(NCc3c(C)cc(C)[nH]c3=O)nccc12)C1CCN(C(C)C)CC1` [Compound Z-69], the IC50 came to 100 nM. For `CCN(c1cc(-c2ccccc2)cc2c(NCc3c(C)cc(C)[nH]c3=O)nccc12)C1CCC(N(C)C)CC1` (stereo not shown) [Compound Z-75], the concentration for half-maximal inhibition (IC50) came out at 128 nM. Turning to `CCN(c1cc(-c2ccc(N3CCN(C)CC3)nc2)cc2c(NCc3c(C)cc(C)[nH]c3=O)nccc12)C1CCN(CCF)CC1` [Compound Z-76], the IC50 was found to be 60 nM. Still for that read-out and setting: in the case of `CCN(c1cc(-c2cncc(C(F)(F)F)c2)cc2c(NCc3c(C)cc(C)[nH]c3=O)nccc12)[C@H]1CC[C@H](N(C)C)CC1` [Compound Z-77] it was 177 nM. Turning to `CCN(c1cc(-c2ccc(Oc3cccnc3)cc2)cc2c(NCc3c(C)cc(C)[nH]c3=O)nccc12)C1CCC(N(C)C)CC1` (stereo not shown) [Compound Z-78], the concentration for half-maximal inhibition (IC50) was 198 nM.

`CCN(c1cc(-c2cnn(C3CCN(C)CC3)c2)cc2c(NCc3c(C)cc(C)[nH]c3=O)nccc12)C1CCC(N(C)C)CC1` (stereo not shown) [Compound Z-79]: the half-inhibitory concentration (IC50) is 45 nM. `CCN(c1cc(-c2ccc(N3CCN(C)CC3)c(F)c2)cc2c(NCc3c(C)cc(C)[nH]c3=O)nccc12)C1CCC(N(C)C)CC1` (stereo not shown) [Compound Z-80]: the half-inhibitory concentration (IC50) turned out to be 26 nM. Turning to `CCN(c1cc(-c2ccc(N3CCN(C)CC3)nc2)cc2c(NCc3c(C)cc(C)[nH]c3=O)nccc12)C1CCN(CCOC)CC1` [Compound Z-81], the IC50 is 53 nM. The same measure, in the same setting: with `CCN(c1cc(-c2ccc(Oc3ccncc3)cc2)cc2c(NCc3c(C)cc(C)[nH]c3=O)nccc12)C1CCC(N(C)C)CC1` (stereo not shown) [Compound Z-83] the figure was 244 nM; with `CCN(c1cc(-c2ccc(CN3CCN(C)CC3)nc2)cc2c(NCc3c(C)cc(C)[nH]c3=O)nccc12)C1CCN(C2CC2)CC1` [Compound Z-84], 83 nM. Same read-out and setting: with `CCN(c1cc(-c2ccc(N3CCOCC3)nc2)cc2c(NCc3c(C)cc(C)[nH]c3=O)nccc12)C1CCN(C2CC2)CC1` [Compound Z-87] the figure was 474 nM; with `CCN(c1cc(-c2ccc(CN3CCOCC3)cc2)cc2c(NCc3c(C)cc(C)[nH]c3=O)nccc12)C1CCC(O)CC1` (stereo not shown) [Compound Z-88], 164 nM; with `C=C(C)c1cc(N(CC)C2CCC(N(C)C)CC2)c2ccnc(NCc3c(C)cc(C)[nH]c3=O)c2c1` (stereo not shown) [Compound Z-109], 182 nM. The same measure, in the same setting: in the case of `CCN(c1cc(-c2ccc(C(=O)Nc3ccccn3)cc2)cc2c(NCc3c(C)cc(C)[nH]c3=O)nccc12)C1CCC(N(C)C)CC1` (stereo not shown) [Compound Z-110] it was 67 nM; in that of `CCN(c1cc(-c2nccn2C)cc2c(NCc3c(C)cc(C)[nH]c3=O)nccc12)C1CCOCC1` [Compound Z-117], 348 nM.

The experiment is the same for the next values; noted with them: read-out: EZH2 Y641F IC50; Recombinant PRC2 (EZH2-Y641F), LANCE Ultra detection, 3 hours reaction.
As for `CCN(c1cc(C(N)=O)cc2c(NCc3c(C)cc(C)[nH]c3=O)nccc12)C1CCC(N(C)C)CC1` (stereo not shown) [Compound Z-21], the IC50 is 205 nM.

The record behind these values is US20200262813A1, “1,5,7-TRISUBSTITUTED ISOQUINOLINE DERIVATIVES, PREPARATION THEREOF, AND USE THEREOF IN MEDICINES” (SHANGHAI HAIYAN PHARMACEUTICAL TECHNOLOGY CO., LTD., priority 2016, published 2020).
